# Measurements from patent US9433667B2, “Cancer vaccines and vaccination methods” (Cedars-Sinai Medical Center, priority 2006, dated 2016).
# Assays:
# [1] = test system: T cells specific for ML-M epitope 19-30; test: Epitope-specific T cell responses in mice after IV immunization, measured by cell proliferation in vitro; assay type: in vivo, C3H mice; details: for T cell response after immunization: IV immunization, lymph node T cells recalled with peptides, FIG. 1
# Experimental: FIG. 1 is a graph depicting levels of epitope-specific T cell responses in mice following immunization IV with mouse lysozyme-M (ML-M), a mouse lysozyme peptide (p19-30), and a mouse lysozyme peptide modified with dibasic residues (18R31R), as measured by cell proliferation in vitro. T cells were isolated from lymph nodes of the animals (3 animals per group) and response to each immunogen was measured.
# In studies using mouse lysozyme-M (ML-M) as a model self Ag, it was observed that mice of diverse MHC haplotypes were tolerant to native (unmutated) ML-M and peptide forms of certain T cell epitopes. It was hypothesized that tolerance to a given epitope was not an inherent structural characteristic, but was attributable in part to inefficient processing of the epitope, owing either to the absence of a proteolytic cleavage site adjacent to that determinant, or to the inaccessibility to the proteolytic enzyme(s) of an existing cleavage site within that region of the molecule. In either case, the provision of a new proteolytic cleavage site adjacent to a cryptic determinant may permit scission of the peptide at that site, making the previously cryptic epitope region available for binding to the appropriate MHC molecule, and lead to presentation to specific T cells of that determinant as a neodominant epitope on the APC surface. To test this proposition, a dibasic motif, consisting of two contiguous basic amino acid residues, e.g., arg-arg (RR) or arg-lys (RK), was used.
# The targeted regions within ML-M included residues 19-31, which contain cryptic epitopes for mice of the H-2^k haplotype, shown in Table 7.
# [2] = test system: T2 pulsed with gp100 native peptide; test: IFN-γ production of gp100 APL-specific CTLs induced in vitro from patient-derived PBMCs; assay type: cell-based, human; details: among six CTLs, two HLA-A*0201 GBM patients, P<0.05 vs gp100 (2M)
# Experimental: FIGS. 2A and 2B are bar graphs that show IFN-γ levels after in vitro induction of CTL in patient-derived PBMCs with dendritic cells pulsed with gp100(2M) or superagonist gp100 peptides in accordance with an embodiment of the present invention in two separate patients.
# (§1) The following protocol can be used to produce antigen specific CTL in vitro from patient derived PBMC. To generate dendritic cells, the plastic adherent cells from PBMCs are cultured in AIM-V medium supplemented with recombinant human GM-CSF and recombinant human IL-4 at 37° C. in a humidified CO2 (5%) incubator. Six days later, the immature dendritic cells in the cultures are stimulated with recombinant human TNF-α for maturation. Mature dendritic cells are then harvested on day 8, resuspended in PBS at 1×10^6 per mL with peptide (2 μg/mL), and incubated for 2 hours at 37° C. Autologous CD8+ T cells are enriched from PBMCs using magnetic microbeads (Miltenyi Biotech, Auburn, Calif.). CD8+ T cells (2×10^6 per well) are cocultured with 2×10^5 per well peptide-pulsed dendritic cells in 2 mL/well of AIM-V medium supplemented with 5% human AB serum and 10 units/mL rhIL-7 (Cell Sciences) in each well of 24-well tissue culture plates. About 20 U/ml of IL-2 is added 24 h later at regular intervals, 2 days after each restimulation. […] After 24 hours incubation, IFN-γ in the medium is measured by ELISA assay. […]
# [3] = test system: T2 pulsed Her-2 native peptide; test: IFN-γ production of Her-2 APL-specific CTLs induced in vitro from patient-derived PBMCs; assay type: cell-based, human; details: among four CTLs, two HLA-A*0201 GBM patients, P<0.05 vs No. 52
# Experimental: FIGS. 3A and 3B are bar graphs that show IFN-γ levels after in vitro induction of CTL in patient-derived PBMCs with native or superagonist Her-2 peptides in accordance with an embodiment of the present invention in two different patients.
# as §1
molecule,measurement,setting,value
RR-GYYGVSLADWVC-RR (RRGYYGVSLADWVCRR; RR flanking dibasic residues; Synthetically generated peptide) [RR-p18-31-RR],T cell response after immunization,[1],raised a potent T cell response
same,in vitro restimulation of T cells primed by RR-p18-31-RR,[1]; recall antigen in vitro,could be restimulated
H- Y M D Q V P Y S V -NH2 (H-YMDQVPYSV-NH2) [No. 38],IFN-γ level of CTL stimulated by the peptide,[2],highest IFN-γ level
H- F M A N V A I P H L -NH2 (H-FMANVAIPHL-NH2) [No. 19],IFN-γ level of CTL stimulated by the peptide,[3],highest IFN-γ level
"mouse lysozyme-M (protein, UniProt P08905 19-148, looked up, model self antigen, native (unmutated) mouse lysozyme-M) Lysozyme C-2: KVYERCEFARTLKRNGMAGYYGVSLADWVCLAQHESNYNTRATNYNRGDQSTDYGIFQINSRYWCNDGKTPRAVNACGINCSALLQDDITAAIQCAKRVVRDPQGIRAWVAWRAHCQNRDLSQYIRNCGV",T cell response after immunization,[1],failed to respond
